Calls of active or inactive are those of the source. No cut-off for these calls is given here. Peptide text beside a SMILES is read from it.
Columns and labels:
[1] = tested on: Staphylococcus aureus; assay: In vivo antibacterial activity against methicillin sensitive Staphylococcus aureus ATCC 25923 infected in kunming mouse assessed as increase in survival rate at 10 mg/kg, ip administered 4 hrs after infection and measured up to 7 days after infection relative to control; assay type: functional; conditions: time day <=7
[2] = tested on: Mus musculus; assay: Immunomodulatory activity in Kunming mouse infected with vancomycin-resistant Staphylococcus aureus assessed as increased in MCP-1 level in peritoneal lavage at 10 mg/kg, ip administered 24 hrs before infection by ELISA; assay type: functional, organism-based
[3] = tested on: Staphylococcus aureus; assay: Antibacterial activity against vancomycin-resistant Staphylococcus aureus assessed as bacterial growth inhibition in presence of 50 mmol NaCl; assay type: functional
[4] = tested on: Mus musculus; assay: Immunomodulatory activity in Kunming mouse infected with vancomycin-resistant Staphylococcus aureus assessed as decreased in IL-1beta level in peritoneal lavage at 10 mg/kg, ip administered 24 hrs before infection by ELISA; assay type: functional, organism-based

For `CC[C@H](C)[C@H](NC(=O)[C@@H]1CCCN1C(=O)[C@@H](NC(=O)[C@@H](NC(=O)CNC(=O)CNC(=O)[C@@H](NC(=O)[C@H](Cc1ccccc1)NC(=O)[C@@H](NC(=O)[C@H](CCCCN)NC(=O)[C@@H](NC(=O)[C@H](CCCCN)NC(=O)[C@H](CCCCN)NC(=O)[C@H](Cc1ccccc1)NC(=O)[C@@H](NC(=O)[C@H](CCCCN)NC(=O)[C@H](CCCNC(=N)N)NC(=O)[C@H](Cc1ccccc1)NC(=O)CNC(=O)[C@H](CCCCN)NC(=O)[C@H](CCCCN)NC(=O)[C@@H](NC(=O)[C@H](CCCCN)NC(=O)[C@H](CCCNC(=N)N)NC(=O)[C@H](Cc1ccccc1)NC(=O)[C@H](Cc1ccccc1)NC(=O)[C@H](CCCCN)NC(=O)[C@H](CCCCN)NC(=O)[C@H](Cc1ccccc1)NC(=O)[C@H](CCCNC(=N)N)NC(=O)[C@@H](N)CCCCN)[C@@H](C)CC)[C@@H](C)CC)[C@@H](C)O)[C@@H](C)CC)[C@@H](C)CC)[C@@H](C)O)[C@@H](C)CC)C(=O)O` (H-KRFKKFFRKIKKGFRKIFKKTKIFIGGTIPI-OH), the Activity [1] was 83%, the Activity [2] was “Active” and the MIC [3] was 4.69 µg/mL. The Activity [4] was “Active”.

Reference: ChEMBL document CHEMBL4715817, “Python Cathelicidin CATHPb1 Protects against Multidrug-Resistant Staphylococcal Infections by Antimicrobial-Immunomodulatory Duality” (J Med Chem, 2018)
